{
  "source": "patent US20090137396A1",
  "about": "“Piperazine Compounds with a Herbicidal Action” (BASF SE, priority 2006, published 2009)",
  "data": [
    {"system": "test plants", "assay": "greenhouse experiment, post-emergence treatment, species not stated", "type": "in vivo", "settings": "post-emergence method; scale from 0 to 100", "from_the_text": "(§1) The seeds of the test plants were sown separately for each species. For the post-emergence treatment, the test plants were first grown to a height of 3 to 15 cm, depending on the plant habit, and only then treated with the active ingredients which had been suspended or emulsified in water. For this purpose, the test plants were either sown directly and grown in the same containers, or they were first grown separately as seedlings and transplanted into the test containers a few days prior to treatment. Depending on the species, the plants were kept at 10-25° C. or 20-35° C. The test period extended over 2 to 4 weeks. During this time, the plants were tended, and their response to the individual treatments was evaluated. Evaluation was carried out using a scale from 0 to 100. 100 means no emergence of the plants, or complete destruction of at least the aerial moieties, and 0 means no damage, or normal course of growth. Good herbicidal activity is given for values of at least 70 and very good herbicidal activity is given for values of at least 85. The plants used in the greenhouse experiments belonged to the following species: [table]", "values": [
      {"smiles": "Cc1cccc([N+](=O)[O-])c1C=C1C(=O)N(C)C(Cc2ccccc2)C(=O)N1C", "note": "(single isomer, unassigned) [Example 13]", "herbicidal activity": "good to very good"},
      {"smiles": "CN1C(=O)C(Cc2ccccc2)N(C)C(=O)C1=Cc1cc2c(cc1[N+](=O)[O-])OCO2", "note": "(single isomer, unassigned) [Example 16]", "herbicidal activity": "good to very good"},
      {"smiles": "CN1C(=O)C(Cc2ccccc2)N(C)C(=O)C1=Cc1ccccc1-c1nccs1", "note": "(single isomer, unassigned) [Example 44]", "herbicidal activity": "good to very good"},
      {"smiles": "CN1C(=O)C(Cc2ccccc2)N(C)C(=O)C1=Cc1ccccc1-c1ccco1", "note": "(single isomer, unassigned) [Example 47]", "herbicidal activity": "good to very good"},
      {"smiles": "CN1C(=O)C(Cc2ccccc2)N(C)C(=O)C1=Cc1ccccc1-c1ccco1", "note": "(single isomer, unassigned) [Example 48]", "herbicidal activity": "good to very good"},
      {"smiles": "Cc1coc(-c2ccccc2C=C2C(=O)N(C)C(Cc3ccccc3)C(=O)N2C)n1", "note": "(single isomer, unassigned) [Example 52]", "herbicidal activity": "good to very good"},
      {"smiles": "C=Cc1ccccc1C=C1C(=O)N(C)C(Cc2ccccc2)C(=O)N1C", "note": "(single isomer, unassigned) [Example 129]", "herbicidal activity": "good to very good"},
      {"smiles": "CN1C(=O)[C@H](Cc2ccccc2)N(C)C(=O)C1=Cc1ccccc1[N+](=O)[O-]", "note": "(stereo in doubt) [Example 1, 3-Benzyl-1,4-dimethyl-6-(2-nitrobenzylidene)piperazine-2,5-dione]", "herbicidal activity": "good to very good"},
      {"smiles": "CN1C(=O)C(Cc2ccccc2)N(C)C(=O)C1=Cc1ccccc1-c1cccs1", "note": "(stereo not shown) [Example 49]", "herbicidal activity": "good to very good"},
      {"smiles": "CN1C(=O)C(Cc2ccccc2)N(C)C(=O)C1=Cc1ccccc1-c1cccnc1", "note": "(stereo not shown) [Example 51]", "herbicidal activity": "good to very good"},
      {"smiles": "CN1C(=O)C(Cc2ccccc2)N(C)C(=O)C1=C(Br)c1ccccc1C#N", "note": "(stereo not shown) [Example 160]", "herbicidal activity": "good to very good"},
      {"smiles": "CCN1C(=O)C(Cc2ccccc2)N(CC)C(=O)C1=Cc1ccccc1Br", "note": "(stereo not shown) [Example 170]", "herbicidal activity": "good to very good"}
    ]},
    {"system": "not given", "assay": "not given", "settings": "not given", "units": {"melting point": "°C"}, "values": [
      {"smiles": "CN1C(=O)C(Cc2ccccc2)N(C)C(=O)C1=Cc1c[nH]c2cccc([N+](=O)[O-])c12", "note": "(stereo not shown) [184]", "melting point": 159},
      {"smiles": "CN1C(=O)C(Cc2ccccc2)N(C)C(=O)C1=Cc1c[nH]c2cccc([N+](=O)[O-])c12", "note": "(stereo not shown) [185]", "melting point": 238},
      {"smiles": "CN1C(=O)C(Cc2ccccc2)N(C)C(=O)C1=Cc1c(C#N)ccc(F)c1F", "note": "(stereo not shown) [Example 115, 3-Benzyl-1,4-dimethyl-6-(2-cyano-5,6-difluorobenzylidene)piperazine-2,5-dione]", "melting point": 175},
      {"smiles": "CN1C(=O)C(Cc2ccccc2)N(C)C(=O)C1=Cc1ccncc1[N+](=O)[O-]", "note": "(stereo not shown) [Example 196]", "melting point": 180},
      {"smiles": "CN1C(=O)C(Cc2ccccc2)N(C)C(=O)C1=Cc1ccncc1[N+](=O)[O-]", "note": "(stereo not shown) [Example 197]", "melting point": 175},
      {"smiles": "CN1C(=O)C(Cc2ccccc2)N(C)C(=O)C1=Cc1ncccc1[N+](=O)[O-]", "note": "(stereo not shown) [Example 198]", "melting point": 165},
      {"smiles": "CN1C(=O)C(Cc2ccccc2)N(C)C(=O)C1=Cc1c[nH]c2cccc(Br)c12", "note": "(stereo not shown) [Example 199]", "melting point": 236},
      {"smiles": "CN1C(=O)C(Cc2ccccc2)N(C)C(=O)C1=Cc1cccnc1C#N", "note": "(stereo not shown) [Example 205]", "melting point": 218}
    ]},
    {"system": "Amaranthus retroflexus (AMARE)", "assay": "greenhouse experiment, pre-emergence treatment, AMARE", "type": "in vivo", "settings": "pre-emergence method, application rate 1 kg/ha; scale from 0 to 100", "from_the_text": "(§2) The seeds of the test plants were sown separately for each species. For the pre-emergence treatment, the active ingredients, which had been suspended or emulsified in water, were applied directly after sowing by means of finely distributing nozzles. The containers were irrigated gently to promote germination and growth and subsequently covered with transparent plastic hoods until the plants had rooted. This cover causes uniform germination of the test plants, unless this has been impaired by the active ingredients. Depending on the species, the plants were kept at 10-25° C. or 20-35° C. The test period extended over 2 to 4 weeks. During this time, the plants were tended, and their response to the individual treatments was evaluated. Evaluation was carried out using a scale from 0 to 100. 100 means no emergence of the plants, or complete destruction of at least the aerial moieties, and 0 means no damage, or normal course of growth. Good herbicidal activity is given for values of at least 70 and very good herbicidal activity is given for values of at least 85. The plants used in the greenhouse experiments belonged to the following species: [table]", "values": [
      {"smiles": "CN1C(=O)C(Cc2ccccc2)N(C(=O)c2ccccc2)C(=O)C1=Cc1ccccc1C#N", "note": "(stereo not shown) [Example 137]", "herbicidal activity against AMARE": "good (Good herbicidal activity is given for values of at least 70)"}
    ]},
    {"system": "Abutilon theophrasti (ABUTH)", "assay": "greenhouse experiment, pre-emergence treatment, ABUTH", "type": "in vivo", "settings": "pre-emergence method, application rate 3 kg/ha; scale from 0 to 100", "from_the_text": "as §2", "values": [
      {"smiles": "COC(=O)c1ccccc1C=C1C(=O)N(C)C(Cc2ccccc2)C(=O)N1C", "note": "(stereo not shown) [Example 73]", "herbicidal activity against ABUTH": "good (Good herbicidal activity is given for values of at least 70)"}
    ]},
    {"system": "Avena fatua (AVEFA)", "assay": "greenhouse experiment, pre-emergence treatment, AVEFA", "type": "in vivo", "settings": "pre-emergence method, application rate 1 kg/ha; scale from 0 to 100", "from_the_text": "as §2", "values": [
      {"smiles": "CN1C(=O)C(Cc2ccccc2)N(C)C(=O)C1=Cc1cnccc1I", "note": "(stereo not shown) [Example 206]", "herbicidal activity against AVEFA": "good (Good herbicidal activity is given for values of at least 70)"}
    ]},
    {"system": "SETIT", "assay": "greenhouse experiment, pre-emergence treatment, SETIT", "type": "in vivo", "settings": "pre-emergence method, application rate 3 kg/ha; scale from 0 to 100", "from_the_text": "as §2", "values": [
      {"smiles": "CN1C(=O)C(Cc2cccs2)N(C)C(=O)C1=Cc1ccccc1I", "note": "(stereo not shown) [Example 214]", "herbicidal activity against SETIT": "good (Good herbicidal activity is given for values of at least 70)"}
    ]},
    {"system": "Lulium perenne (LOLMU)", "assay": "greenhouse experiment, post-emergence treatment, LOLMU", "type": "in vivo", "settings": "post-emergence method, application rate 1 kg/ha; scale from 0 to 100", "from_the_text": "as §1", "values": [
      {"smiles": "CN1C(=O)[C@H](Cc2ccccc2)N(C)C(=O)C1=Cc1ccccc1[N+](=O)[O-]", "note": "(stereo in doubt) [Example 1, 3-Benzyl-1,4-dimethyl-6-(2-nitrobenzylidene)piperazine-2,5-dione]", "herbicidal activity against LOLMU": "very good (very good herbicidal activity is given for values of at least 85)"}
    ]},
    {"system": "test plants", "assay": "greenhouse experiment, pre-emergence treatment, species not stated", "type": "in vivo", "settings": "pre-emergence method; scale from 0 to 100", "from_the_text": "as §2", "values": [
      {"smiles": "CN1C(=O)C(Cc2ccccc2)N(C)C(=O)C1=Cc1ccccc1-c1ncco1", "note": "(single isomer, unassigned) [Example 45]", "herbicidal activity": "good to very good"},
      {"smiles": "CN1C(=O)C(Cc2ccccc2)N(C)C(=O)C1=Cc1ccccc1-c1ncccn1", "note": "(single isomer, unassigned) [Example 100]", "herbicidal activity": "good to very good"},
      {"smiles": "CN1C(=O)C(Cc2ccccc2)N(C)C(=O)C1=Cc1ccccc1-c1ncccn1", "note": "(single isomer, unassigned) [Example 101]", "herbicidal activity": "good to very good"},
      {"smiles": "CN1C(=O)C(Cc2ccccc2)N(C)C(=O)C1=Cc1ccccc1-c1cnccn1", "note": "(single isomer, unassigned) [Example 109]", "herbicidal activity": "good to very good"},
      {"smiles": "CN1C(=O)C(Cc2ccccc2)N(C)C(=O)C1=Cc1ccccc1-c1cnccn1", "note": "(single isomer, unassigned) [Example 110]", "herbicidal activity": "good to very good"},
      {"smiles": "Cc1cc(-c2ccccc2C=C2C(=O)N(C)C(Cc3ccccc3)C(=O)N2C)on1", "note": "(single isomer, unassigned) [Example 147]", "herbicidal activity": "good to very good"},
      {"smiles": "Cc1cc(-c2ccccc2C=C2C(=O)N(C)C(Cc3ccccc3)C(=O)N2C)on1", "note": "(single isomer, unassigned) [Example 148]", "herbicidal activity": "good to very good"},
      {"smiles": "CN1C(=O)C(Cc2ccccc2)N(C)C(=O)C1=Cc1c(F)cccc1I", "note": "(stereo not shown) [Example 38]", "herbicidal activity": "good to very good"},
      {"smiles": "CN1C(=O)C(Cc2ccccc2)N(C)C(=O)C1=Cc1c(Cl)cccc1I", "note": "(stereo not shown) [Example 40]", "herbicidal activity": "good to very good"},
      {"smiles": "CN1C(=O)C(Cc2ccccc2)N(C)C(=O)C1=Cc1ccccc1C(F)(F)F", "note": "(stereo not shown) [Example 54]", "herbicidal activity": "good to very good"},
      {"smiles": "CN1C(=O)C(Cc2ccccc2)N(C)C(=O)C1=Cc1cc(F)ccc1Br", "note": "(stereo not shown) [Example 62]", "herbicidal activity": "good to very good"},
      {"smiles": "COC(=O)c1ccccc1C=C1C(=O)N(C)C(Cc2ccccc2)C(=O)N1C", "note": "(stereo not shown) [Example 73]", "herbicidal activity": "good to very good"},
      {"smiles": "CN1C(=O)C(Cc2ccccc2)N(C)C(=O)C1=Cc1c(Br)ccc(F)c1F", "note": "(stereo not shown) [Example 119, 3-benzyl-1,4-dimethyl-6-(2-bromo-5,6-difluorobenzylidene)piperazine-2,5-dione]", "herbicidal activity": "good to very good"},
      {"smiles": "CN1C(=O)C(Cc2ccccc2)N(C)C(=O)C1=Cc1ccccc1-c1cncnc1", "note": "(stereo not shown) [Example 124]", "herbicidal activity": "good to very good"},
      {"smiles": "CN1C(=O)C(Cc2ccccc2)N(C(=O)c2ccccc2)C(=O)C1=Cc1ccccc1C#N", "note": "(stereo not shown) [Example 137]", "herbicidal activity": "good to very good"},
      {"smiles": "CC(=O)N1C(=O)C(=Cc2ccccc2C#N)N(C)C(=O)C1Cc1ccccc1", "note": "(stereo not shown) [Example 140]", "herbicidal activity": "good to very good"},
      {"smiles": "CN1C(=O)C(Cc2ccccc2)N(C)C(=O)C1=Cc1ccsc1[N+](=O)[O-]", "note": "(stereo not shown) [Example 191]", "herbicidal activity": "good to very good"},
      {"smiles": "CN1C(=O)C(Cc2ccccc2)N(C)C(=O)C1=Cc1ncccc1[N+](=O)[O-]", "note": "(stereo not shown) [Example 198]", "herbicidal activity": "good to very good"},
      {"smiles": "CN1C(=O)C(Cc2ccccc2)N(C)C(=O)C1=Cc1cccnc1Br", "note": "(stereo not shown) [Example 204]", "herbicidal activity": "good to very good"},
      {"smiles": "CN1C(=O)C(Cc2ccccc2)N(C)C(=O)C1=Cc1cnccc1I", "note": "(stereo not shown) [Example 206]", "herbicidal activity": "good to very good"},
      {"smiles": "CN1C(=O)C(Cc2cccs2)N(C)C(=O)C1=Cc1ccccc1I", "note": "(stereo not shown) [Example 214]", "herbicidal activity": "good to very good"}
    ]}
  ]
}
